Assay [1] concerns E. coli ML-35p. As to the kind of experiment: Antimicrobial assay, broth microdilution MIC. It is filed as cell-based, Escherichia coli. Conditions: Gram -, MH medium with NaCl, peptide diluted in 0.1% BSA, 10^6 CFU/mL, 24 h 37 °C, median of three independent triplicated experiments. As for the experimental part: (§1) Bacterial test cultures were grown in the Mueller-Hinton (MH) medium at 37 °C to mid-log phase and then diluted with the 2 x MH medium supplemented with 1.8% NaCl. 50 µL of the bacterial suspension with a final cell concentration of 10^6 CFU/mL were added to aliquots of 50 µL of the peptide solutions and serially diluted with sterilized 0.1% bovine serum albumin in 96-well flat-bottom polystyrene microplates (Eppendorf, Hamburg, Germany). Bacterial cells were incubated for 24 h at 37 °C and 900 rpm on the plate thermoshaker (Biosan, Riga, Latvia). The minimum inhibitory concentrations (MIC) were determined as the lowest peptide concentration that prevented growth of a test microorganism observed as visible turbidity. The results were expressed as median values of three independent triplicated experiments. Assessment of antimicrobial activities of the recombinant PM III, other polyphemusins, and tachyplesins was conducted against Gram-negative (Escherichia coli ML-35p, Klebsiella pneumoniae (clinical isolate, CI 287), Pseudomonas aeruginosa PAO1) and Gram-positive (Staphylococcus aureus ATCC 29213, Staphylococcus aureus 209P, Bacillus subtilis B-886, Micrococcus luteus B-1314) bacteria.

Assay [2] concerns S. aureus 209P. Put plainly: Antimicrobial assay, broth microdilution MIC. Type of assay: cell-based, Staphylococcus aureus. Conditions: Gram +, MH medium with NaCl, 24 h 37 °C, median of three independent triplicated experiments. As for the experimental part: as §1
On the technique in general: In broth dilution the organism is exposed to a series of concentrations in liquid medium.

The subject of assay [3] is S. aureus ATCC 29213. Put plainly: Antimicrobial assay, broth microdilution MIC. Conditions: S. aureus ATCC 29213, Gram +, MH medium with NaCl, 24 h 37 °C, median of three independent triplicated experiments. It is filed as cell-based, Staphylococcus aureus. As for the experimental part: as §1
Assay [4] deals with HL-60 (acute promyelocytic leukemia). It is filed as cell-based, human. Conditions: MTT after 48 h, RPMI-1640 with 10% FBS, mean ± SD of at least three independent experiments. How it is done: (§2) Cytotoxic activities of PM III, its isoforms, and tachyplesins against seven human cell lines were evaluated. Four cancer (HL-60 acute promyelocytic leukemia, HeLa cervix adenocarcinoma, SK-BR-3 breast adenocarcinoma, A549 lung carcinoma), one transformed (HEK 293T transformed human embryonic kidney), and two normal human cell lines (HEF human embryonic fibroblasts and NHA normal human astrocytes) were used for these experiments. Cytotoxicity was measured by incubating the cells with serial dilutions of PM I, PM II, PM III, TP I, TP II, or TP III samples followed by MTT assay after 48 h. The half-maximal inhibitory concentrations (IC50) were measured as the peptide concentration at which cell viability was reduced by 50% in comparison to untreated cells (Table 3).
(§3) The following tumor and transformed cell lines were used in this study: HL-60 (acute promyelocytic leukemia), HeLa (human cervix adenocarcinoma cells), SK-BR-3 (human breast adenocarcinoma cells), A549 (human lung carcinoma cells), HEK 293T (transformed human embryonic kidney cells), HEF (human embryonic fibroblasts), and NHA (normal human astrocytes) were used as normal cell lines. Tumor and transformed cell lines were obtained from the American Type Culture Collection (ATCC; www.atcc.org). Primary cells HEF (normal human embryonic fibroblasts derived from human embryonic stem cells) and NHA (normal human astrocytes derived from human fetal brain tissue) were obtained and cultured according to the corresponding protocol. Briefly, cells were cultured in DMEM/F12 (1:1) or RPMI-1640 medium containing 10% fetal bovine serum (Invitrogen, USA) at 37 °C in the atmosphere containing 5% CO2 and 95% air according to standard mammalian tissue culture protocols and using a sterile technique. All cell lines were tested by using the LookOut® Mycoplasma PCR Detection Kit (Sigma-Aldrich, St. Louis, MO, USA) according to the manufacturer’s protocol and found to be free of Mycoplasma infection.
(§4) The colorimetric 3-(4,5-dimethylthiazol-2-yl)-2,5-diphenyltetrazolium bromide (MTT) dye reduction assay was used to determine the cytotoxicity of the polyphemusins and tachyplesins. Cells (3 × 10^3–6 × 10^3 per well) were placed into 96-well plates in Dulbecco’s modified Eagle’s medium (DMEM/F12) supplemented with 10% fetal bovine serum (FBS). After incubation in the atmosphere containing 5% CO2 and 95% air at 37 °C overnight, the media were discarded, and polyphemusins or tachyplesins solutions were added to the cell cultures up to final concentrations of 2.5, 5, 10, 25, and 50 μM in a final volume of 0.1 mL DMEM/F12 with 10% FBS. HL-60 cells (4 × 10^4 in 50 μL) were added to two-time serial dilutions of polyphemusins solutions at a final concentration of 1.25, 2.5, 5, 10, 25, and 50 μM in 50 μL RPMI-1640 with 10% FBS. 48 hours later, 20 μL of MTT (5 mg/mL) was added into each well and the plates were incubated for 3 h at 37 °C. The plates with HL-60 cells were centrifuged for 10 min at 300 g. The media were discarded and 0.1 mL of dimethyl sulfoxide and isopropanol mixture at a ratio of 1:1 (v/v) was added to each well to dissolve the crystallized formazan. The absorbance at 570 nm was measured by a microplate reader (Eppendorf, Hamburg, Germany).

In assay [5] the test system is K. pneumoniae (CI 287). Put plainly: Antimicrobial assay, broth microdilution MIC. Type of assay: cell-based, Klebsiella pneumoniae. Conditions: Gram -, MH medium with NaCl, 24 h 37 °C, median of three independent triplicated experiments. How it is done: as §1
Assay [6] concerns B. subtilis B-886. Put plainly: Antimicrobial assay, broth microdilution MIC. It is filed as cell-based, Bacillus subtilis. Conditions: B. subtilis B-886, Gram +, MH medium with NaCl, 24 h 37 °C, median of three independent triplicated experiments. As for the experimental part:
as §1

The subject of assay [7] is NHA (normal human astrocytes). It is filed as cell-based. Conditions: NHA normal cells; MTT after 48 h, DMEM/F12 with 10% FBS; mean ± SD of at least three independent experiments. As for the experimental part:
as §2, §3, §4

In assay [8] the test system is SK-BR-3 (human breast adenocarcinoma cells). It is filed as cell-based. Conditions: MTT after 48 h, DMEM/F12 with 10% FBS, mean ± SD of at least three independent experiments. How it is done: as §2, §3, §4
The subject of assay [9] is HeLa (human cervix adenocarcinoma cells). Type of assay: cell-based. Conditions: MTT after 48 h, DMEM/F12 with 10% FBS, mean ± SD of at least three independent experiments. How it is done: as §2, §3, §4
Assay [10] concerns HEF (human embryonic fibroblasts). It is filed as cell-based. Conditions: HEF normal cells; MTT after 48 h, DMEM/F12 with 10% FBS; mean ± SD of at least three independent experiments. How it is done: as §2, §3, §4
Assay [11] has as its system HEK 293T (transformed human embryonic kidney cells). Type of assay: cell-based. Conditions: MTT after 48 h, DMEM/F12 with 10% FBS, mean ± SD of at least three independent experiments. As for the experimental part: as §2, §3, §4

Several values for one entry are separate records, joined by “and”; a condition that tells them apart may be missing. Equal values may be shown once. Where a SMILES comes first, the peptide text is derived from it. Bridges are numbered along the chain shown (N, C = ends).

On to `CC(C)[C@@H]1NC(=O)[C@H](CCCNC(=N)N)NC(=O)[C@H](Cc2ccccc2)NC(=O)[C@@H](NC(=O)[C@H](Cc2c[nH]c3ccccc23)NC(=O)[C@H](CCCNC(=N)N)NC(=O)[C@@H](N)CCCNC(=N)N)CSSC[C@@H](C(=O)N[C@@H](CCCNC(=N)N)C(=O)O)NC(=O)[C@H](CCCCN)NC(=O)[C@H](CCCNC(=N)N)NC(=O)[C@H](Cc2ccc(O)cc2)NC(=O)[C@@H]2CSSC[C@H](NC1=O)C(=O)N[C@@H](Cc1ccc(O)cc1)C(=O)N[C@@H](CCCNC(=N)N)C(=O)NCC(=O)N[C@@H](Cc1ccccc1)C(=O)N2` [PM I, polyphemusin I] (H-RRWCFRVCYRGFCYRKCR-OH; disulfide 4-17, 8-13 (inferred); N-terminus assumed), for which the MICs stood at 0.062 µM in [1]; 0.5 µM in [2]; 4 µM in assay [3]; 0.5 µM in [5]; 0.25 µM in assay [6]. Also, the IC50 (usually the concentration at which inhibition is half-maximal) in assay [4] came to 7.2 ± 0.5 µM; in [7], 14.5 ± 1.6 µM; in assay [8] it was 16 ± 0.6 µM; in [9] it was 12.5 ± 0.9 µM; in [10], 8.3 ± 0.7 µM; in assay [11], 9.4 ± 1.5 µM.

Consider `CC(C)[C@@H]1NC(=O)[C@H](CCCNC(=N)N)NC(=O)[C@H](Cc2ccccc2)NC(=O)[C@@H](NC(=O)[C@H](Cc2c[nH]c3ccccc23)NC(=O)[C@H](CCCNC(=N)N)NC(=O)[C@@H](N)CCCNC(=N)N)CSSC[C@@H](C(=O)N[C@@H](CCCNC(=N)N)C(=O)O)NC(=O)[C@H](CCCCN)NC(=O)[C@H](CCCNC(=N)N)NC(=O)[C@H](Cc2ccc(O)cc2)NC(=O)[C@@H]2CSSC[C@H](NC1=O)C(=O)N[C@@H](Cc1ccc(O)cc1)C(=O)N[C@@H](CCCCN)C(=O)NCC(=O)N[C@@H](Cc1ccccc1)C(=O)N2` [PM II, polyphemusin II] (H-RRWCFRVCYKGFCYRKCR-OH; disulfide 4-17, 8-13 (inferred); N-terminus assumed), for which the MICs is 0.031 µM in [1]; 0.5 µM in assay [2]; 4 µM in assay [3]; 0.5 µM in assay [5]; 0.5 µM in [6]. The IC50 in assay [4] was 7.2 ± 0.5 µM; in assay [7] it was 18.3 ± 1.4 µM; in assay [8], 17.3 ± 0.6 µM; in assay [9] it was 16.4 ± 1.3 µM; in assay [10], 7 µM and 9.7 µM; in [11], 11.3 ± 1.6 µM.

As to `CC(C)[C@@H]1NC(=O)[C@H](CCCNC(=N)N)NC(=O)[C@H](Cc2ccccc2)NC(=O)[C@@H](NC(=O)CNC(=O)[C@H](CCCNC(=N)N)NC(=O)[C@@H](N)CCCNC(=N)N)CSSC[C@@H](C(=O)N[C@@H](CCCNC(=N)N)C(=O)O)NC(=O)[C@H](CCCNC(=N)N)NC(=O)[C@H](CCC(N)=O)NC(=O)[C@H](Cc2ccccc2)NC(=O)[C@@H]2CSSC[C@H](NC1=O)C(=O)N[C@@H](Cc1ccc(O)cc1)C(=O)N[C@@H](CCCNC(=N)N)C(=O)NCC(=O)N[C@@H](Cc1ccccc1)C(=O)N2` [PM III, polyphemusin III] (H-RRGCFRVCYRGFCFQRCR-OH; disulfide 4-17, 8-13 (inferred); N-terminus assumed), the MICs in [1] worked out at 0.25 µM; in assay [2], 2 µM; in assay [3] it was 16 µM; in assay [5], 2 µM; in assay [6], 0.5 µM. The IC50 turned out to be 2.5 ± 0.1 µM in [4]; 7.5 ± 0.5 µM in [7]; 9.9 ± 0.1 µM in assay [8]; 6 ± 0.2 µM in assay [9]; 7 ± 0.4 µM in assay [10]; 7.3 ± 0.4 µM in [11].

Consider `CC[C@H](C)[C@@H]1NC(=O)CNC(=O)[C@H](CCCNC(=N)N)NC(=O)[C@H](Cc2ccc(O)cc2)NC(=O)[C@@H]2CSSC[C@H](NC1=O)C(=O)N[C@@H](Cc1ccc(O)cc1)C(=O)N[C@@H](CCCNC(=N)N)C(=O)N[C@@H](CCCNC(=N)N)C(=O)N[C@H](C(=O)N[C@@H](CCCNC(=N)N)C(=O)O)CSSC[C@H](NC(=O)[C@H](Cc1c[nH]c3ccccc13)NC(=O)[C@@H](N)CCCCN)C(=O)N[C@@H](Cc1ccccc1)C(=O)N[C@@H](CCCNC(=N)N)C(=O)N[C@@H](C(C)C)C(=O)N2` [TP I, tachyplesin I] (H-KWCFRVCYRGICYRRCR-OH; disulfide 3-16, 7-12 (inferred); N-terminus assumed), for which the MICs in assay [1] turned out to be 0.062 µM; in assay [2], 0.5 µM; in assay [3], 8 µM; in assay [5], 0.5 µM; in [6], 0.5 µM. The IC50 was 4.8 ± 0.3 µM in assay [4]; 24.7 ± 1.8 µM in [7]; 30.1 ± 1.9 µM in [8]; 24.2 ± 1.7 µM in assay [9]; 13 ± 1.5 µM in assay [10]; 23.5 ± 1.2 µM in [11].

For `CC[C@H](C)[C@@H]1NC(=O)CNC(=O)[C@H](CCCNC(=N)N)NC(=O)[C@H](Cc2ccc(O)cc2)NC(=O)[C@@H]2CSSC[C@H](NC1=O)C(=O)N[C@@H](Cc1ccc(O)cc1)C(=O)N[C@@H](CCCNC(=N)N)C(=O)N[C@@H](CCCCN)C(=O)N[C@H](C(=O)N[C@@H](CCCNC(=N)N)C(=O)O)CSSC[C@H](NC(=O)[C@H](Cc1c[nH]c3ccccc13)NC(=O)[C@@H](N)CCCNC(=N)N)C(=O)N[C@@H](Cc1ccccc1)C(=O)N[C@@H](CCCNC(=N)N)C(=O)N[C@@H](C(C)C)C(=O)N2` [TP II, tachyplesin II] (H-RWCFRVCYRGICYRKCR-OH; disulfide 3-16, 7-12 (inferred); N-terminus assumed), the MICs in assay [1] was 0.062 µM; in [2], 0.5 µM; in assay [3] it was 8 µM; in assay [5], 1 µM; in assay [6], 0.5 µM. The half-inhibitory concentration (IC50) in assay [4] was 5.6 ± 0.5 µM; in [7], 29.4 ± 1.7 µM; in assay [8], 34 ± 1.3 µM; in [9], 24.4 ± 3 µM; in [10], 17.7 ± 1.2 µM; in assay [11], 24.6 ± 1.7 µM.

Values taken from article PMC6315362, “Cytotoxic Potential of the Novel Horseshoe Crab Peptide Polyphemusin III” (Marine Drugs, 2018).
